From publication PMC11270687 (ACS Omega, 2024)

System: PD3
Type: biochemical, Brucella anthropi

CCCC(=O)Oc1ccc([N+](=O)[O-])cc1 [p-nitrophenyl butyrate]
Km: 7.82 mM
